Test results: ChEMBL document CHEMBL1208749 (2010)

tested on: 3T3-L1; assay: Glucose uptake enhancing activity in insulin-stimulated mouse 3T3L1 cells at 10 uM after 4 days by FLIPR based 2-DG uptake assay relative to control; assay type: functional

Q: For `O=c1c(-c2ccc(O)cc2)coc2cc(O)ccc12` [DAIDZEIN], which “fold change (FC)” value is on record?
A: Its value is 1.5.

Q: Which “fold change (FC)” value does the source give for `O=c1c(-c2ccc(O[C@@H]3O[C@H](CO)[C@@H](O)[C@H](O)[C@H]3O)cc2)coc2cc(O)ccc12` here?
A: The value was 1.15.

Q: How did the “fold change (FC)” value turn out when `O=c1c(-c2ccc(O)cc2)coc2cc(O[C@@H]3O[C@H](CO)[C@@H](O)[C@H](O)[C@H]3O)ccc12` [DAIDZIN] was run?
A: Its value is 1.15.

Q: For `O=c1c(-c2ccc(O)cc2)coc2cc(O)c([C@H]3O[C@@H](CO)[C@H](O)[C@@H](O)[C@@H]3O)c(O)c12`, which “fold change (FC)” value is on record?
A: Its value is 1.5.

Q: Which fold change (FC) does the source give for `O=c1cc(-c2ccc(O)cc2)oc2c([C@@H]3O[C@H](CO)[C@@H](O)[C@H](O)[C@H]3O)c(O)cc(O)c12` here?
A: Its fold change (FC) is 1.1.

Q: With `O=C1c2c(O)cc(O)c([C@@H]3O[C@H](CO)[C@@H](O)[C@H](O)[C@H]3O)c2OCC1c1ccc(O)cc1` (stereo partly drawn) as the compound, how does the “fold change (FC)” value read?
A: Its value is 1.1.

Q: Which “fold change (FC)” value does the source give for `O=c1c(-c2ccc(O)cc2)coc2c(CC(O)CO)c(O)ccc12` (stereo not drawn) here?
A: The value was 1.5.

Q: With `O=c1c(-c2ccc(O)cc2)coc2c([C@@H]3O[C@H](CO)[C@@H](O)[C@H](O)[C@H]3O)c(O)ccc12` [PUERARIN] as the compound, how does the “fold change (FC)” value read?
A: The value was 1.5.
